{"source": "patent US6667309B2", "about": "“Cyclobutene derivatives useful as antagonists of the motilin receptor” (Ortho-McNeil Pharmaceutical, Inc., priority 2000, dated 2003)", "molecular_target": "T1, motilin receptors located on the colon of mature rabbits (Oryctolagus cuniculus, UniProt G1T803)", "T1 construct": "The muscle tissues were homogenized in 10 volumes of buffer; from tissue; host or cells: rabbit colon smooth muscle, crude membrane homogenate", "T1 sequence (G1T803 1-400)": "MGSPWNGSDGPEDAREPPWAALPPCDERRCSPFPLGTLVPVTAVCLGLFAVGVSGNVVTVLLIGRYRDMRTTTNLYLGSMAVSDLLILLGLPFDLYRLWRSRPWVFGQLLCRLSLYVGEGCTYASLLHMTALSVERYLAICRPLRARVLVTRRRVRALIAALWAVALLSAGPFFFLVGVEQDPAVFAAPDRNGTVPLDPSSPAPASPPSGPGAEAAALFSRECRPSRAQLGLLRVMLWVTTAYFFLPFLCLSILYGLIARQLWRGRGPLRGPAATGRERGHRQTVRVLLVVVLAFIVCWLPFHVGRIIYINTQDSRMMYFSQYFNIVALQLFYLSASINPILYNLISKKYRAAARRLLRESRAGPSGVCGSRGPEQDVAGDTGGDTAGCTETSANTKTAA", "assay": "Competition with radiolabeled motilin (porcine) binding, rabbit colon membranes", "set-up": "species or system New Zealand rabbits", "conditions": "I125 motilin (porcine), rabbit colon membrane", "protocol": "The compounds of the invention were tested for their ability to compete with radiolabeled motilin (porcine) for the motilin receptors located on the colon of mature rabbits. The colon from mature New Zealand rabbits was removed, dissected free from the mucosa and serosa layers, and diced into small pieces. The muscle tissues were homogenized in 10 volumes of buffer (50 mM Tris-Cl, 10 mM MgCl2, 0.1 mg/mL bactracin, and 0.25 mM Peflabloc, pH 7.5) in a Polytron (29,000 rpm, 4×15 seconds). The homogenate was centrifuged at 1000×g for 15 min. and the supernatant discarded. The pellet was washed twice before being suspended in homogenizing buffer. This crude homogenate was then passed first through a 19 gauge needle then a 23 gauge needle to further suspend the material and stored at −80° C. […] The pellet was counted in the gamma counter to determine the percentage of […] motilin and thereby the percent inhibition of the test compound.\n% inhibition was determined for some compounds by standard techniques: […]", "data": [{"smiles": "O=C(c1ccc(F)c(F)c1)N(CC1=CC(Cc2ccccc2)(NC(=O)C(Cl)(Cl)Cl)C1)c1cccc(OCCN2CCOCC2)c1", "note": "(centres unmarked) [example 6, 3-Benzyl-3-trichloroacetamido-1-[N-(3,4-difluorobenzoyl)]-N-[(3-(2-morpholinoethoxy)phenyl)amino]methylcyclobutene]", "values": [{"measurement": "% inhibition", "setting": "@ 1,000 nM test compound", "value": 14, "unit": "%"}]}, {"smiles": "O=C(c1ccc(Br)cc1)N(CC1=CC(Cc2ccccc2)(NC(=O)C(Cl)(Cl)Cl)C1)c1cccc(OCCN2CCOCC2)c1", "note": "(centres unmarked) [example 7, 3-Benzyl-3-trichloroacetamido-1-[N-(4-bromobenzoyl)]-N-[(3-(2-morpholinoethoxy)phenyl)amino]methylcyclobutene]", "values": [{"measurement": "% inhibition", "setting": "@ 10,000 nM test compound", "value": 47, "unit": "%"}]}]}
